The supplement of paper PMC10307832

Legend:
Experiment in all cases: relative viability (nuclei count vs DMSO), 5 days (fraction); higher = more cells survive
[1] = system: PC-3 [JPC-3]
Summary of the method: (§1)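 Each reported value is a median over duplicate plates. It expresses relative viability: treated-well nuclei count divided by vehicle-well nuclei count. Lung cancer cell lines in 1536-well plates were dosed by pin tool a day after seeding, alone with one drug or with a fixed anchor-drug dose plus five library-drug doses (not always all listed) in √10 steps, and nuclei were counted after 5 days.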

[2] = system: A-427
Summary of the method: as §1

[3] = system: SK-LU-1
Summary of the method: as §1

[4] = system: NCI-H1792
Summary of the method: as §1

[5] = system: NCI-H522
Summary of the method: as §1

[6] = system: LC-2-ad
Summary of the method: as §1

[7] = system: HOP-62
Summary of the method: as §1

[8] = system: NCI-H1734
Summary of the method: as §1

[9] = system: HCC-78
Summary of the method: as §1

[10] = system: RERF-LC-KJ
Summary of the method: as §1

[11] = system: NCI-H2126
Summary of the method: as §1

[12] = system: NCI-H358
Summary of the method: as §1

[13] = system: HCC-15
Summary of the method: as §1

[14] = system: NCI-H1975
Summary of the method: as §1

[15] = system: NCI-H1915
Summary of the method: as §1

[16] = system: SW 1573
Summary of the method: as §1

[17] = system: NCI-H2347
Summary of the method: as §1

[18] = system: NCI-H1755
Summary of the method: as §1

[19] = system: LXF-289
Summary of the method: as §1

[20] = system: NCI-H647
Summary of the method: as §1

[21] = system: NCI-H2342
Summary of the method: as §1

SMILES: Nc1ccn([C@@H]2O[C@H](CO)[C@@H](O)[C@@H]2O)c(=O)n1 [Cytarabine] + Nc1ncn([C@H]2C[C@H](O)[C@@H](CO)O2)c(=O)n1 [Decitabine] (partner 2 µM)
- relative viability ([1]; first compound 0.005 µM): 0.824
- relative viability ([1]; first compound 0.01581 µM): 0.763
- relative viability ([1]; first compound 0.05 µM): 0.581
- relative viability ([1]; first compound 0.1581 µM): 0.468
- relative viability ([1]; first compound 0.5 µM): 0.507
- relative viability ([2]; first compound 0.005 µM): 0.475
- relative viability ([2]; first compound 0.01581 µM): 0.421
- relative viability ([2]; first compound 0.05 µM): 0.361
- relative viability ([2]; first compound 0.1581 µM): 0.259
- relative viability ([2]; first compound 0.5 µM): 0.263
- relative viability ([3]; first compound 0.005 µM): 0.526
- relative viability ([3]; first compound 0.01581 µM): 0.565
- relative viability ([3]; first compound 0.05 µM): 0.524
- relative viability ([3]; first compound 0.1581 µM): 0.462
- relative viability ([3]; first compound 0.5 µM): 0.372
- relative viability ([4]; first compound 0.01581 µM): 0.647
- relative viability ([4]; first compound 0.05 µM): 0.387
- relative viability ([4]; first compound 0.1581 µM): 0.251
- relative viability ([4]; first compound 0.5 µM): 0.205
- relative viability ([5]; first compound 0.005 µM): 0.653
- relative viability ([5]; first compound 0.01581 µM): 0.608
- relative viability ([5]; first compound 0.05 µM): 0.628
- relative viability ([5]; first compound 0.1581 µM): 0.484
- relative viability ([5]; first compound 0.5 µM): 0.335
- relative viability ([6]; first compound 0.005 µM): 0.727
- relative viability ([6]; first compound 0.01581 µM): 0.682
- relative viability ([6]; first compound 0.05 µM): 0.759
- relative viability ([6]; first compound 0.1581 µM): 0.69
- relative viability ([6]; first compound 0.5 µM): 0.499
- relative viability ([7]; first compound 0.005 µM): 0.222
- relative viability ([7]; first compound 0.01581 µM): 0.189
- relative viability ([7]; first compound 0.05 µM): 0.179
- relative viability ([7]; first compound 0.1581 µM): 0.162
- relative viability ([7]; first compound 0.5 µM): 0.126
- relative viability ([8]; first compound 0.005 µM): 0.439
- relative viability ([8]; first compound 0.01581 µM): 0.27
- relative viability ([8]; first compound 0.05 µM): 0.188
- relative viability ([8]; first compound 0.1581 µM): 0.131
- relative viability ([8]; first compound 0.5 µM): 0.138
- relative viability ([9]; first compound 0.005 µM): 0.715
- relative viability ([9]; first compound 0.01581 µM): 0.668
- relative viability ([9]; first compound 0.05 µM): 0.587
- relative viability ([9]; first compound 0.1581 µM): 0.492
- relative viability ([9]; first compound 0.5 µM): 0.44
- relative viability ([10]; first compound 0.005 µM): 0.677
- relative viability ([10]; first compound 0.01581 µM): 0.568
- relative viability ([10]; first compound 0.05 µM): 0.475
- relative viability ([10]; first compound 0.1581 µM): 0.342
- relative viability ([10]; first compound 0.5 µM): 0.29
- relative viability ([11]; first compound 0.005 µM): 0.597
- relative viability ([11]; first compound 0.01581 µM): 0.518
- relative viability ([11]; first compound 0.05 µM): 0.514
- relative viability ([11]; first compound 0.1581 µM): 0.457
- relative viability ([11]; first compound 0.5 µM): 0.429
- relative viability ([12]; first compound 0.005 µM): 0.229
- relative viability ([12]; first compound 0.01581 µM): 0.205
- relative viability ([12]; first compound 0.05 µM): 0.226
- relative viability ([12]; first compound 0.1581 µM): 0.133
- relative viability ([12]; first compound 0.5 µM): 0.107
- relative viability ([13]; first compound 0.005 µM): 0.511
- relative viability ([13]; first compound 0.01581 µM): 0.528
- relative viability ([13]; first compound 0.05 µM): 0.594
- relative viability ([13]; first compound 0.1581 µM): 0.462
- relative viability ([13]; first compound 0.5 µM): 0.464
- relative viability ([14]; first compound 0.005 µM): 0.336
- relative viability ([14]; first compound 0.01581 µM): 0.353
- relative viability ([14]; first compound 0.05 µM): 0.562
- relative viability ([14]; first compound 0.1581 µM): 0.271
- relative viability ([14]; first compound 0.5 µM): 0.257
- relative viability ([15]; first compound 0.005 µM): 0.248
- relative viability ([15]; first compound 0.01581 µM): 0.289
- relative viability ([15]; first compound 0.05 µM): 0.269
- relative viability ([15]; first compound 0.1581 µM): 0.231
- relative viability ([15]; first compound 0.5 µM): 0.227
- relative viability ([16]; first compound 0.005 µM): 0.347
- relative viability ([16]; first compound 0.01581 µM): 0.184
- relative viability ([16]; first compound 0.05 µM): 0.247
- relative viability ([16]; first compound 0.1581 µM): 0.121
- relative viability ([16]; first compound 0.5 µM): 0.083
- relative viability ([17]; first compound 0.005 µM): 0.61
- relative viability ([17]; first compound 0.01581 µM): 0.56
- relative viability ([17]; first compound 0.05 µM): 0.507
- relative viability ([17]; first compound 0.1581 µM): 0.537
- relative viability ([17]; first compound 0.5 µM): 0.573
- relative viability ([18]; first compound 0.005 µM): 0.705
- relative viability ([18]; first compound 0.01581 µM): 0.619
- relative viability ([18]; first compound 0.05 µM): 0.659
- relative viability ([18]; first compound 0.1581 µM): 0.472
- relative viability ([18]; first compound 0.5 µM): 0.424
- relative viability ([19]; first compound 0.005 µM): 0.387
- relative viability ([19]; first compound 0.01581 µM): 0.312
- relative viability ([19]; first compound 0.05 µM): 0.314
- relative viability ([19]; first compound 0.1581 µM): 0.227
- relative viability ([19]; first compound 0.5 µM): 0.197
- relative viability ([20]; first compound 0.005 µM): 0.307
- relative viability ([20]; first compound 0.01581 µM): 0.239
- relative viability ([20]; first compound 0.05 µM): 0.258
- relative viability ([20]; first compound 0.1581 µM): 0.108
- relative viability ([20]; first compound 0.5 µM): 0.0719
- relative viability ([21]; first compound 0.005 µM): 0.712
- relative viability ([21]; first compound 0.01581 µM): 0.702
- relative viability ([21]; first compound 0.05 µM): 0.7
- relative viability ([21]; first compound 0.1581 µM): 0.482
- relative viability ([21]; first compound 0.5 µM): 0.483
